Data on one compound can be found in patent US10487054B2, “Therapeutic compounds” (REGENTS OF THE UNIVERSITY OF MINNESOTA, priority 2017, dated 2019).

One data set has as its system SKH-1 hairless mice. Put plainly: SUV-induced mouse skin tumorigenesis, early-stage prevention model. Type of data set: in vivo. As to the method:
Tumor volume was calculated according to the following formula: tumor volume (mm^3)=length×width×height×0.52. […] For 4B and 4C, data are represented as mean values±S.D. and significant differences were determined by one-way ANOVA. The asterisk (*) indicates a significant decrease compared to the SUV only or the vehicle and SUV-treated groups (***, p<0.001). […] Dorsal trunk skin samples were harvested and stained with H&E (left panels) or with an antibody to detect PCNA (right panels). […] Expression of PCNA was quantified using Image-Pro Plus software and stained cells were counted from 5 separate areas on each slide (lower panel). An average of 3 samples was calculated per group. Data are expressed as mean percent of control±S.D. and the asterisks indicate a significant difference in PCNA expression (***, p<0.001). […] The expression levels of phosphorylated and total proteins were analyzed by Western blot.
Mice were weighed once a week until the end of the study at week 28. […] SKH-1 hairless mice were treated as described in Materials and Methods. The mice in the control groups (n=9) received no vehicle/no SUV (n=3), vehicle/no SUV (n=3), or 1 mg […]/no SUV (n=3), respectively. The mice in the SUV treated group received SUV only (n=12) and the mice in the vehicle/SUV-treated group (n=12) were treated with oil-in-water emulsion cream before SUV exposure. The mice in the 0.1 mg/SUV or 1 mg/SUV groups (n=12 each) received treatment with compound 1 (0.1 or 1 mg, respectively) before SUV exposure. The frequency of irradiation was set at 3 times a week for 15 weeks. The respective doses of oil-in-water emulsion cream or compound 1 were applied topically to the dorsal area. Tumor incidence and multiplicity were recorded weekly until the end of the experiment at week 28.
Female SKH-1 hairless mice were purchased from Charles River and were acclimated for 2 weeks before the study and had free access to food and water. All animals were maintained according to the guidelines approved by the University of Minnesota Institutional Animal Care and Use Committee (IACUC). The animals were housed in climate-controlled quarters with a 12-h light/dark cycle. The skin carcinogenesis experiments were conducted using 6-8 wk old mice with a mean body weight of 25 g. Skin carcinogenesis was induced by a solar simulated ultraviolet irradiation system. The SUV irradiation source (Q-Lab Corporation, Westlake, Ohio) emitted at wavelengths of 295 to 365 nm and the peak emission was 340 nm.
The two mouse models included an early-stage prevention model and a late-stage prevention model. These models were designed for detecting either the respective chemopreventive effect or the potential therapeutic value of compound 1 against SUV-induced skin damage and carcinogenesis. For the early-stage prevention study, SKH-1 mice were divided into 7 groups and an oil-in-water emulsion cream was applied topically as the vehicle with or without compound 1. The three control groups included 1) mice (n=3) not treated with vehicle or SUV; 2) mice (n=3) treated with vehicle but no SUV; and 3) mice (n=3) treated with 1 mg compound 1 in vehicle but not exposed to SUV. Experimental groups included 1) mice (n=12) treated with SUV only; 2) mice (n=12) treated with vehicle followed by SUV 1 h later; 3) mice (n=12 each group) treated with topical application of 0.1 or 1 mg of compound 1 in vehicle 1 h before SUV irradiation. The topical applications and SUV treatment were applied 3 times a week for a total of 15 weeks. At 15 weeks, SUV irradiation was discontinued and topical applications continued with tumor growth monitoring for an additional 13 weeks until week 28 at which time mice were euthanized and tissues harvested.
At week 1, mice were irradiated with SUV at a dose of 36 kJ/m^2 UVA and 1.8 kJ/m^2 UVB. At week 6, the dose of SUV reached 60 kJ/m^2 UVA and 2.9 kJ/m^2 UVB and this dose was maintained from week 6 to week 15. […]

The subject of the next data set is MEK1/2. Put plainly: Pull-down assay with HaCaT cell lysates. It is filed as binding, human. The settings on record: HaCaT cell lysates 500 μg, Western blot. As to the method:
Active TOPK (200 ng) was incubated with different concentrations of ATP (0, 10 or 100 μM) and then mixed with compound 1-conjugated Sepharose 4B beads or Sepharose 4B beads. Proteins were pulled down and analyzed by Western blot. Data are representative of 3 independent experiments that gave similar results. FIGS. 2C and 2D show compound 1 binds to either TOPK (2C) or MEK1/2 (2D) ex vivo. Lysates from HaCaT cells (500 μg) were incubated with compound 1-conjugated Sepharose 4B beads or Sepharose 4B beads alone and the pulled-down proteins were analyzed by Western blot. Data are representative of 3 independent experiments that gave similar results. FIGS. 2E and 2F show compound 1 inhibits TOPK kinase (2E) activity but not MEK1 kinase (2F) activity in vitro. Active TOPK (200 ng) was mixed with compound 1 (0, 0.5, 1, 3, or 5 μM) or HI-032 (TOPK inhibitor, 10 μM) and then incubated with a [γ-^32P] ATP mixture. Similarly, MEK1 (200 ng) was mixed with compound 1 (0, 0.5, 1, 3, 5, or 10 μM) or PD098059 (MEK1 inhibitor, 5 μM) and then incubated with a [γ-^32P] ATP mixture. For 2E and 2F, the results are visualized by autoradiography and Coomassie blue staining serves as a loading control. Data are representative of 3 independent experiments that gave similar results. […]
Background: Immunoblotting shows a protein as a band on a membrane.

For `O=C1Nc2ccc(C34CC5CC(CC(C5)C3)C4)cc2C1=NO` [compound 1, 5-(adamantan-1-yl)-3-(hydroxyimino)indolin-2-one], in the data set on SKH-1 hairless mice (early-stage model (FIG. 4B)), the SUV-induced tumor volume entry is listed as “suppresses”. In addition, the SUV-induced epidermal thickness entry in the data set with SKH-1 hairless mice (early-stage model, 0.1 or 1 mg, H&E) is given as “decreased”. Further, the “SUV-induced phosphorylation of ERK1/2, p38, and JNKs in mouse skin” value in the data set on SKH-1 hairless mice (early-stage model, Western blot) is on record as “dramatically suppressed”. The “expression of PCNA” value in the data set on SKH-1 hairless mice (early-stage model, immunohistochemistry of skin) is reported as “decreased”. Further, the “average number of SUV-induced tumors” value in the data set with SKH-1 hairless mice (early-stage model, week 28 (FIG. 4C)) is recorded as “suppresses”. Also, the SUV-induced papilloma formation entry in the data set on SKH-1 hairless mice (early-stage prevention group, topical 0.1 or 1 mg) is “total inhibition”. Also, the body weight entry in the data set on SKH-1 hairless mice (topical application on dorsal skin, early-stage model, to week 28) is recorded as “no effect on body weight”. In addition, in the data set with MEK1/2, the “binding of MEK1/2 to compound-conjugated beads” value is on record as “detected in the compound 1-conjugated beads group but not in the beads only group”.
